{"source": "patent US20070128217A1", "about": "(priority 2003, published 2007)", "key": {"[1]": {"tested_on": "rabbit serum obtained by immunizing a rabbit with the SARS-CoV strain Frankfurt 1", "type": "binding", "set-up": "Binding of a rabbit serum to linear peptides / Binding of a rabbit serum to looped peptides / Rabbit serum linear peptides / Rabbit serum looped peptides / Binding of a rabbit serum to linear peptides of protein N of SARS-CoV Urbani (Rabbit serum linear peptides) / Binding of a rabbit serum to looped/cyclic peptides of protein N of SARS-CoV Urbani (Rabbit serum looped peptides): unit not given here"}, "[2]": {"tested_on": "antibodies in sera from SARS patients (sera 1a, 1b, 2, 6, 37, 62, London, SARS-yellow, SARS-green)", "type": "binding, human", "set-up": "Binding of serum 6 to linear peptides of protein X1 of SARS-CoV Urbani / Binding of serum 37 to linear peptides of protein X1 of SARS-CoV Urbani / Binding of serum 6 to looped/cyclic peptide (PEPSCAN-ELISA) / Binding of serum 37 to looped/cyclic peptide (PEPSCAN-ELISA) / Binding of serum 37 to looped/cyclic peptides of protein X1 of SARS-CoV Urbani / Binding of serum 6 to linear peptides of protein X2 / Binding of serum 37 to linear peptides of protein X2 / Binding of serum 37 to looped/cyclic peptides of protein X2 of SARS-CoV Urbani / Binding of serum 6 to linear peptides of protein M of SARS-CoV Urbani / Binding of serum 37 to linear peptides of protein M of SARS-CoV Urbani / Binding of serum 6 to looped/cyclic peptides of protein M of SARS-CoV Urbani / Binding of serum 37 to looped/cyclic peptides of protein M of SARS-CoV Urbani / Binding of serum 6 to linear peptides of protein X3 of SARS-CoV Urbani / Binding of serum 37 to linear peptides of protein X3 of SARS-CoV Urbani / Binding of serum 37 to looped/cyclic peptides of protein X3 of SARS-CoV Urbani / Binding of serum 6 to linear peptides of protein X4 of SARS-CoV Urbani / Binding of serum 37 to linear peptides of protein X4 of SARS-CoV Urbani / Binding of serum 37 to looped/cyclic peptides of protein X4 of SARS-CoV Urbani / Binding of serum 6 to linear peptides of protein X5 of SARS-CoV Urbani / Binding of serum 37 to linear peptides of protein X5 of SARS-CoV Urbani / Binding of serum 37 to looped/cyclic peptides of protein X5 of SARS-CoV Urbani / Binding of serum 6 to linear peptides of protein N of SARS-CoV Urbani / Binding of serum 37 to linear peptides of protein N of SARS-CoV Urbani / Binding of serum 6 to linear peptide (PEPSCAN-ELISA) / Binding of serum 1a to looped/cyclic peptides of protein N of SARS-CoV Urbani / Binding of serum 1b to looped/cyclic peptides of protein N of SARS-CoV Urbani / Binding of serum 2 to looped/cyclic peptides of protein N of SARS-CoV Urbani / Binding of serum 6 to looped/cyclic peptides of protein N of SARS-CoV Urbani / Binding of serum 37 to looped/cyclic peptides of protein N of SARS-CoV Urbani / Binding of serum 62 to looped/cyclic peptides of protein N of SARS-CoV Urbani / Binding of serum London to looped/cyclic peptides of protein N of SARS-CoV Urbani / Binding of serum SARS-green to looped/cyclic peptides of protein N of SARS-CoV Urbani: unit not given here"}, "[3]": {"tested_on": "control sera (pooled serum of ten healthy LUMC hospital workers; commercial negative donor pooled serum from the Dutch bloodbank)", "type": "binding, human", "set-up": "Binding of Control serum LUMC to linear peptides / Binding of Control serum Blood-bank to linear peptides / Binding of Control serum LUMC to looped peptides / Binding of Control Serum Blood-Bank to Looped peptides / Binding of Control serum LUMC to linear peptides of the protein M of SARS-CoV Urbani / Binding of Control serum Blood-bank to linear peptides of the protein M of SARS-CoV Urbani / Binding of Control serum LUMC to looped peptides of the protein M of SARS-CoV Urbani / Binding of Control Serum Blood-Bank to Looped peptides of the protein M of SARS-CoV Urbani: unit not given here"}, "[4]": {"tested_on": "recombinant human anti-SARS-CoV antibody 03-018", "type": "binding", "set-up": "Binding of antibody 03-018 to linear peptides of the N protein of SARS-CoV Urbani / Binding of antibody 03-018 to looped/cyclic peptides of the N protein of SARS-CoV Urbani: unit not given here"}}}
{"sequence": "LDRLNQLESKVSGKG", "values": [{"measurement": "Binding of a rabbit serum to linear peptides of protein N of SARS-CoV Urbani (Rabbit serum linear peptides)", "setting": "[1]", "value": 0.0}, {"measurement": "Binding of a rabbit serum to looped/cyclic peptides of protein N of SARS-CoV Urbani (Rabbit serum looped peptides)", "setting": "[1]", "value": 0.4}, {"measurement": "Binding of serum 1a to linear peptide (PEPSCAN-ELISA)", "setting": "[2]", "value": 0.3}, {"measurement": "Binding of serum 1a to looped/cyclic peptides of protein N of SARS-CoV Urbani", "setting": "[2]", "value": 0.4}, {"measurement": "Binding of serum 1b to linear peptide (PEPSCAN-ELISA)", "setting": "[2]", "value": 0.2}, {"measurement": "Binding of serum 1b to looped/cyclic peptides of protein N of SARS-CoV Urbani", "setting": "[2]", "value": 0.3}, {"measurement": "Binding of serum 2 to linear peptide (PEPSCAN-ELISA)", "setting": "[2]", "value": 0.3}, {"measurement": "Binding of serum 2 to looped/cyclic peptides of protein N of SARS-CoV Urbani", "setting": "[2]", "value": 0.4}, {"measurement": "Binding of serum 6 to linear peptide (PEPSCAN-ELISA)", "setting": "[2]", "value": 0.3}, {"measurement": "Binding of serum 6 to looped/cyclic peptides of protein N of SARS-CoV Urbani", "setting": "[2]", "value": 0.3}, {"measurement": "Binding of serum 37 to linear peptide (PEPSCAN-ELISA)", "setting": "[2]", "value": 0.5}, {"measurement": "Binding of serum 37 to looped/cyclic peptides of protein N of SARS-CoV Urbani", "setting": "[2]", "value": 0.4}, {"measurement": "Binding of serum 62 to linear peptide (PEPSCAN-ELISA)", "setting": "[2]", "value": 0.6}, {"measurement": "Binding of serum 62 to looped/cyclic peptides of protein N of SARS-CoV Urbani", "setting": "[2]", "value": 0.4}, {"measurement": "Binding of serum London to linear peptide (PEPSCAN-ELISA)", "setting": "[2]", "value": 0.5}, {"measurement": "Binding of serum London to looped/cyclic peptides of protein N of SARS-CoV Urbani", "setting": "[2]", "value": 0.4}, {"measurement": "Binding of serum SARS-green to linear peptide (PEPSCAN-ELISA)", "setting": "[2]", "value": 0.8}, {"measurement": "Binding of serum SARS-green to looped/cyclic peptides of protein N of SARS-CoV Urbani", "setting": "[2]", "value": 0.2}, {"measurement": "Binding of serum SARS-yellow to linear peptide (PEPSCAN-ELISA)", "setting": "[2]", "value": 0.7}, {"measurement": "Binding of serum SARS-yellow to looped/cyclic peptides of protein N of SARS-CoV Urbani", "setting": "[2]", "value": 0.3}, {"measurement": "Binding of Control Serum Blood-Bank to Looped peptides", "setting": "[3]", "value": 0.5}, {"measurement": "Binding of Control serum Blood-bank to linear peptides", "setting": "[3]", "value": 1.0}, {"measurement": "Binding of Control serum LUMC to linear peptides", "setting": "[3]", "value": 0.8}, {"measurement": "Binding of Control serum LUMC to looped peptides", "setting": "[3]", "value": 0.5}, {"measurement": "Binding of antibody 03-018 to linear peptides of the N protein of SARS-CoV Urbani", "setting": "[4]", "value": 0.1}, {"measurement": "Binding of antibody 03-018 to looped/cyclic peptides of the N protein of SARS-CoV Urbani", "setting": "[4]", "value": 0.2}]}
{"sequence": "SAAEASKKPRQKRTA", "values": [{"measurement": "Binding of a rabbit serum to linear peptides of protein N of SARS-CoV Urbani (Rabbit serum linear peptides)", "setting": "[1]", "value": 0.2}, {"measurement": "Binding of a rabbit serum to looped/cyclic peptides of protein N of SARS-CoV Urbani (Rabbit serum looped peptides)", "setting": "[1]", "value": 0.3}, {"measurement": "Binding of serum 1a to looped/cyclic peptides of protein N of SARS-CoV Urbani", "setting": "[2]", "value": 0.2}, {"measurement": "Binding of serum 1b to looped/cyclic peptides of protein N of SARS-CoV Urbani", "setting": "[2]", "value": 0.1}, {"measurement": "Binding of serum 2 to looped/cyclic peptides of protein N of SARS-CoV Urbani", "setting": "[2]", "value": 0.2}, {"measurement": "Binding of serum 6 to looped/cyclic peptides of protein N of SARS-CoV Urbani", "setting": "[2]", "value": 0.1}, {"measurement": "Binding of serum 37 to looped/cyclic peptides of protein N of SARS-CoV Urbani", "setting": "[2]", "value": 0.4}, {"measurement": "Binding of serum 62 to looped/cyclic peptides of protein N of SARS-CoV Urbani", "setting": "[2]", "value": 0.3}, {"measurement": "Binding of serum London to looped/cyclic peptides of protein N of SARS-CoV Urbani", "setting": "[2]", "value": 0.3}, {"measurement": "Binding of serum SARS-green to looped/cyclic peptides of protein N of SARS-CoV Urbani", "setting": "[2]", "value": 0.1}, {"measurement": "Binding of serum SARS-yellow to looped/cyclic peptides of protein N of SARS-CoV Urbani", "setting": "[2]", "value": 0.2}, {"measurement": "Recognition of the peptide by sera of SARS-CoV infected individuals, and form (linear, looped/cyclic) in which it is recognized", "setting": "[2]", "value": "recognized in linear form"}, {"measurement": "Binding of Control Serum Blood-Bank to Looped peptides", "setting": "[3]", "value": 0.4}, {"measurement": "Binding of Control serum Blood-bank to linear peptides", "setting": "[3]", "value": 0.8}, {"measurement": "Binding of Control serum LUMC to linear peptides", "setting": "[3]", "value": 0.8}, {"measurement": "Binding of Control serum LUMC to looped peptides", "setting": "[3]", "value": 0.4}, {"measurement": "Binding of antibody 03-018 to linear peptides of the N protein of SARS-CoV Urbani", "setting": "[4]", "value": 0.1}, {"measurement": "Binding of antibody 03-018 to looped/cyclic peptides of the N protein of SARS-CoV Urbani", "setting": "[4]", "value": 0.2}]}
{"sequence": "EASKKPRQKRTATKQ", "values": [{"measurement": "Binding of a rabbit serum to linear peptides of protein N of SARS-CoV Urbani (Rabbit serum linear peptides)", "setting": "[1]", "value": 0.2}, {"measurement": "Binding of a rabbit serum to looped/cyclic peptides of protein N of SARS-CoV Urbani (Rabbit serum looped peptides)", "setting": "[1]", "value": 0.2}, {"measurement": "Binding of serum 1a to linear peptide (PEPSCAN-ELISA)", "setting": "[2]", "value": 0.2}, {"measurement": "Binding of serum 1a to looped/cyclic peptides of protein N of SARS-CoV Urbani", "setting": "[2]", "value": 0.3}, {"measurement": "Binding of serum 1b to linear peptide (PEPSCAN-ELISA)", "setting": "[2]", "value": 0.1}, {"measurement": "Binding of serum 1b to looped/cyclic peptides of protein N of SARS-CoV Urbani", "setting": "[2]", "value": 0.2}, {"measurement": "Binding of serum 2 to linear peptide (PEPSCAN-ELISA)", "setting": "[2]", "value": 0.3}, {"measurement": "Binding of serum 2 to looped/cyclic peptides of protein N of SARS-CoV Urbani", "setting": "[2]", "value": 0.4}, {"measurement": "Binding of serum 6 to linear peptide (PEPSCAN-ELISA)", "setting": "[2]", "value": 0.3}, {"measurement": "Binding of serum 6 to looped/cyclic peptides of protein N of SARS-CoV Urbani", "setting": "[2]", "value": 0.3}, {"measurement": "Binding of serum 37 to linear peptide (PEPSCAN-ELISA)", "setting": "[2]", "value": 0.7}, {"measurement": "Binding of serum 37 to looped/cyclic peptides of protein N of SARS-CoV Urbani", "setting": "[2]", "value": 0.6}, {"measurement": "Binding of serum 62 to linear peptide (PEPSCAN-ELISA)", "setting": "[2]", "value": 0.7}, {"measurement": "Binding of serum 62 to looped/cyclic peptides of protein N of SARS-CoV Urbani", "setting": "[2]", "value": 0.5}, {"measurement": "Binding of serum London to linear peptide (PEPSCAN-ELISA)", "setting": "[2]", "value": 0.5}, {"measurement": "Binding of serum London to looped/cyclic peptides of protein N of SARS-CoV Urbani", "setting": "[2]", "value": 0.5}, {"measurement": "Binding of serum SARS-green to linear peptide (PEPSCAN-ELISA)", "setting": "[2]", "value": 0.3}, {"measurement": "Binding of serum SARS-green to looped/cyclic peptides of protein N of SARS-CoV Urbani", "setting": "[2]", "value": 0.3}, {"measurement": "Binding of serum SARS-yellow to linear peptide (PEPSCAN-ELISA)", "setting": "[2]", "value": 0.6}, {"measurement": "Binding of serum SARS-yellow to looped/cyclic peptides of protein N of SARS-CoV Urbani", "setting": "[2]", "value": 0.4}, {"measurement": "Binding of Control Serum Blood-Bank to Looped peptides", "setting": "[3]", "value": 0.8}, {"measurement": "Binding of Control serum Blood-bank to linear peptides", "setting": "[3]", "value": 0.9}, {"measurement": "Binding of Control serum LUMC to linear peptides", "setting": "[3]", "value": 0.8}, {"measurement": "Binding of Control serum LUMC to looped peptides", "setting": "[3]", "value": 0.6}, {"measurement": "Binding of antibody 03-018 to linear peptides of the N protein of SARS-CoV Urbani", "setting": "[4]", "value": 0.1}, {"measurement": "Binding of antibody 03-018 to looped/cyclic peptides of the N protein of SARS-CoV Urbani", "setting": "[4]", "value": 0.3}]}
